“Also recorded” adds a separate entry of the source. Marks after values point to notes of the source that are not given here.
What was measured:
[1] = target: T1, human M1 muscarinic receptors (Homo sapiens, UniProt P11229); test: [3H]AA release ACh dose-response families fitted to an allosteric operational model; settings: for Affinity-B, logKB: given as logKB (negative log value), allosteric site
T1 sequence (P11229 1-460): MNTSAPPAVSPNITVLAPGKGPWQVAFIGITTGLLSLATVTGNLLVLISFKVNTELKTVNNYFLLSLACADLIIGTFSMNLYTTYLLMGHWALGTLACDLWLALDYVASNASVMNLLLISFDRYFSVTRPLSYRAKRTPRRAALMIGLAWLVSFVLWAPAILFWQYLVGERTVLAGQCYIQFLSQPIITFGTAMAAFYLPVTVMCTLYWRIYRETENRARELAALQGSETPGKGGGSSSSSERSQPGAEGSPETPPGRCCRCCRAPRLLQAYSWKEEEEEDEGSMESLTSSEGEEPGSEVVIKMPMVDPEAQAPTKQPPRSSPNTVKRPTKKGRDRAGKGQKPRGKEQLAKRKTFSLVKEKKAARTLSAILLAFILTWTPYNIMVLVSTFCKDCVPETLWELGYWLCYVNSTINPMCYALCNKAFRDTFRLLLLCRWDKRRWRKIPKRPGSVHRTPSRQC
Method: Stably transfected CHO-hM1 cells were seeded on 24-well plates (Greiner Bio-One GmbH, Frickenhausen, Germany) at a density of 5.0 × 10^4 cells/well in 0.5 ml of F-12 medium. Cells were incubated until they attached (approximately 3 h), followed by the addition of [^3H]AA to a final concentration of 0.05 μCi of [^3H]AA per well. The cells were then grown for 16 to 20 h before the assay was performed. [^3H]AA release was measured in Eagle’s basal medium with 20 mM HEPES and 2 mg/ml fatty acid-free bovine serum albumin (EM-BSA). Cells were rinsed twice with EM-BSA, followed by the addition of EM-BSA media containing experimental agents and incubated for 1 h at 37 °C. The assay was terminated by aspiration of the media, and the amount of [^3H]AA released was determined by liquid scintillation counting (Beckman-Coulter LS6500).
Tabulated [^3H]AA release data are represented as a fraction of maximal release elicited by ACh or as the fraction of release elicited by the relevant concentration of ACh alone, as indicated. Dose-response curves were normalized to the maximal response of ACh without allosteric ligand. Where indicated, response curves were analyzed using the empirical four-parameter equation: Y=Top+Bottom-Top/1+X/C50^n where X is the concentration of the ligand used, Y is the amount of response, C50 is the concentration of the ligand that produces 50% of the maximal effect, Top and Bottom are the top and bottom plateaus of the curve, and n is related to the Hill slope for the curve. Where indicated, families of response curves were analyzed according to an allosteric operational model[50],[51]: Y=EM[τAA(KB+αβB)+τBBKA]/[τAA(KB+αβB)+τBBKA+AKB+KAKB+KAB+αAB] where EM is the maximal response; A is the concentration of ACh; B is the concentration of the allosteric ligand; τA and τB represent the operational efficacies of A and B, respectively; KA and KB are the equilibrium dissociation constants of A and B; and α and β represent the cooperativities between A and B in terms of binding and activation, respectively. Curve-fitting was carried out with GraphPad Prism, version 5.0 or 6.0 (San Diego CA).

[2] = test system: wild-type (AB) zebrafish (Danio rerio); format: in vivo; settings: compound at 10 µM relative to controls; mean ± s.e.m., N = 12
[3] = test system: wild-type (AB) zebrafish (Danio rerio); test: animal or person; format: in vivo; settings: for Distance moved / Variance turn angle: compound at 10 µM relative to controls, mean ± s.e.m., N = 12; for MEC: locomotor behaviors
[4] = test system: wild-type (AB) zebrafish (Danio rerio); test: Maximum tolerated concentration (MTC) determination in larval zebrafish; format: in vivo; settings: for MTC (maximum tolerated concentration): after 24 h exposure, 5 dpf larvae
[5] = target: T1, human M1 muscarinic receptors; test: [3H]-arachidonic acid release in CHO cells expressing M1 receptors, with and without ACh (single modulator concentration, four-parameter curves); format: cell-based; parameters: expressed in transfected cells; host or cells: CHO cells stably transfected with hM1, obtained from Mark Brann's laboratory (NIH); settings: for 0.1 µM ACh: response with modulator present divided by response to ACh alone / 100 µM ACh: response with modulator present divided by response to ACh alone / No ACh: agonist effect of the allosteric ligand by itself, fraction of the maximal response that could be elicited by ACh: modulator 10 µM, CHO-hM1, mean ± s.e.m.; for No ACh: agonist effect of the allosteric ligand by itself, fraction of the maximal response that could be elicited by ACh: at least 4 determinations; for Effect on M1 receptor activity and ACh response, in words: modulators at 10 µM (amiodarone 30 µM)

In the case of `COc1c(Br)cc(CN2C(=O)C(=O)c3ccccc32)cc1Br` [Compound 8c, 1-(3,5-dibromo-4-methoxybenzyl)indoline-2,3-dione], the “Operational efficacy-B, τB” value ([1]; best-fit ± s.e.m., Em set to 2.0) is reported as 0.33 ± 0.06, the “Affinity-B, logKB” value ([1]; Em set to 2.0) is reported as −5.53 ± 0.15 and the Kb ([1]; read-out: KB, affinity for M1 muscarinic receptors, allosteric operational model) is reported as 3 µM. The Angular velocity [2] was 201.6 ± 20.2 %, the “Concentration with significant effects on locomotor behaviors” value ([3]; AB zebrafish) was 1 µM and the Distance moved [3] was 26.9 ± 3.7*** %. The Variance turn angle [3] was 150.8 ± 12.0*** %, the MEC [3] was 0.1 µM and the “MTC (maximum tolerated concentration)” value [4] was over 30 µM. For the same compound, the “Concentration up to which no signs of toxicity were produced” value ([4]; highest concentration tested) was at least 30 µM, the “0.1 µM ACh: response with modulator present divided by response to ACh alone” value [5] was 2.62 ± 0.19 and the “100 µM ACh: response with modulator present divided by response to ACh alone” value [5] was 1.42 ± 0.09. The “No ACh: agonist effect of the allosteric ligand by itself, fraction of the maximal response that could be elicited by ACh” value [5] was 0.19 ± 0.03 and the “Effect on M1 receptor activity and ACh response, in words” value [5] was “dramatically enhanced ACh efficacy”.
In the case of `CCN(CC)CCOc1ccc(CN2C(=O)C(=O)c3ccccc32)cc1` [Compound 7, 1-(4-(2-(diethylamino)ethoxy)benzyl)indoline-2,3-dione], the “Affinity-B, logKB” value ([1]; Em set to 2.0) is reported as −6.20 ± 0.33, the Angular velocity [2] is reported as 122.4 ± 6.9% and the “Effect on locomotor activity and turning behaviors, in words” value ([3]; 30 min spontaneous swimming period) is reported as “not effective in reducing locomotor activity or elevating angular velocity or variance of turn angle”. It also gave a Distance moved [3] of 72.5 ± 11.8%, a Variance turn angle [3] of 93.9 ± 10.6% and an MEC [3] of over 10 µM. For the same compound, the “MTC (maximum tolerated concentration)” value [4] was 10 µM, the “0.1 µM ACh: response with modulator present divided by response to ACh alone” value [5] was 0.06 ± 0.01 and the “100 µM ACh: response with modulator present divided by response to ACh alone” value [5] was 1.11 ± 0.06. The “No ACh: agonist effect of the allosteric ligand by itself, fraction of the maximal response that could be elicited by ACh” value [5] was 0.02 ± 0.01 and the “Effect on M1 receptor activity and ACh response, in words” value [5] was “primarily decreased potency and slightly enhanced the efficacy of ACh; also recorded: lacked intrinsic activity; also recorded: decreased ACh potency with little impact on ACh efficacy”.
